# Read-outs that look alike come from different tables or passages of the source.
# Assays:
# [1] = in vivo; format: in vivo; conditions: mouse, in vivo, ip; i.p. in mice; N = 5, K = 4; read-out: LD50 and fiducial limits
# Description: (§1) The acute toxicity of the compounds of general formula (I) was investigated in mice using the Weil method (Weil C. S., Biometr. J. 8, 249, 1952).
# [2] = test system: arrythmia induced by Aconitine in mice; assay: animal or person; format: in vivo; conditions: for change in vivo at 100 mg/kg / change in vivo at 25 mg/kg / change in vivo at 40 mg/kg / change in vivo at 8.9 mg/kg / change in vivo at 50 mg/kg / change in vivo at 35 mg/kg / change in vivo at 20 mg/kg: Mus musculus, iv; for % increase of the latency time to onset of initial cardiac arrythmia / % increase of the latency time to onset of tachycardia: with respect to the control group
# Procedure: The antiarrhythmic effect of the compounds was also investigated in mice according to the P. W. Nwangwu, T. Holcslow procedure (P. W. Nwangwu, T. L. Holcslow; Arch. Int. Pharmacodyn. 229, 219 (1977)). Using aconitine (5γ/ml) as arrhythmogenic agent, the changes in the cardiac rhythm of the animals were recorded and the onset time of initial arrhythmia and/or of ventricular tachycardia were used as end point.
# [3] = test system: plasma cholesterol (Chol.) triglycerides (TG) and α-, β- and pre-β-lipoproteins; assay: plasma cholesterol, triglycerides and lipoproteins in rats treated with olive oil; format: in vivo; conditions: olive oil 15 ml kg^-1, N = 6; for % Lipoproteins β: control 16.12 ± 1.48; for % Lipoproteins α: control 23.28 ± 2.19; for % Lipoproteins pre-β: control 56.45 ± 2.36; for Chol. (plasma cholesterol): control 96.18 ± 4.16; for TG (plasma triglycerides): control 215.36 ± 20.18
# [4] = test system: mice; assay: in vivo; format: in vivo; conditions: i.p. in mice; N = 5, K = 4
# Description: as §1
# [5] = test system: rabbit's heart "in vitro"; assay: cardiokinetic effect: contractile force of isolated rabbit heart (Langendorff) after anoxia; conditions: 10^-6 M; 10 minutes from the interruption of the anoxic period; control 26.93 ± 5.31
# Procedure: The cardiokinetic effect was investigated on rabbit hearts isolated by the Langendorff method. […] The isometric contractions, electro-cardiogram and coronary flow were recorded using a "Battaglia-Rangoni" polygraph. By removing the oxygen from the perfusion fluid, metabolic damage was induced in the cardiac muscle, up to an 80% reduction in the cardiac contractile force. Under these conditions of prolonged anoxia the aerobic glycolysis of the myocardium is slowed down with attendant formation of acid catabolites due to both the accumulation of pyruvic acid and its conversion to lactic acid which cannot be utilized because of the depression of pyridine enzymes, such as LDH (lactodehydrogenase). This has repercussions on the anaerobic glycolysis affecting an ever increasing number of enzymes, accompanied by a progressive and increasingly critical exhaustion of the myocardium. Thus a whole series of cardiac muscle fatigue levels occurs which can be observed by the behaviour of the examined parameters, namely the contractile force, coronary flow, heart rate and cardiac rhythm. As soon as the contractile force was reduced by 80%, the perfusion fluid was once again oxygenated either without adding other compounds (controls) or with the addition of the compounds under examination.
# [6] = read-out: % increase of the latency time to onset of initial cardiac arrythmia
# [7] = read-out: % increase of the latency time to onset of tachycardia
molecule,measurement,setting,value
C[N+](C)(C)CC(CC(=O)O)OC(=O)CC1C=CCC1 (centres unmarked) [2-cyclopenten ACAR],LD50,[1],1200 mg/kg
same,change in vivo at 100 mg/kg,[2]; [6],40%
same,change in vivo at 100 mg/kg,[2]; [7],20%
CC(C)(O)C(=O)OC(CC(=O)O)C[N+](C)(C)C (centres unmarked) [2-hydroxy isobutyryl CAR],LD50,[1],1470 mg/kg
same,change in vivo at 25 mg/kg,[2]; [6],55%
same,change in vivo at 25 mg/kg,[2]; [7],48%
same,% Lipoproteins β,[3]; 450 mg kg^-1 oral,10.36 ± 1.12%
same,% Lipoproteins α,[3]; 450 mg kg^-1 oral,27.19 ± 3.48%
same,% Lipoproteins pre-β,[3]; 450 mg kg^-1 oral,48.36 ± 1.15%
same,Chol. (plasma cholesterol),[3]; 450 mg kg^-1 oral,75.03 ± 4.12 mg/100 ml
same,TG (plasma triglycerides),[3]; 450 mg kg^-1 oral,100.29 ± 12.48 mg/100 ml
CC(C)C(O)C(=O)OC(CC(=O)O)C[N+](C)(C)C (centres unmarked) [2-hydroxy isovaleryl CAR],LD50,[1],1580 mg/kg
same,change in vivo at 40 mg/kg,[2]; [6],60%
same,change in vivo at 40 mg/kg,[2]; [7],30%
"COC(=O)CCC(=O)OC(CC(=O)O)C[N+](C)(C)C (centres unmarked) [3-carbomethoxypropionyl CAR, 3-carbomethoxypropionyl carnitine chloride]",LD50,[1],985 mg/kg
same,change in vivo at 25 mg/kg,[2]; [6],65%
same,change in vivo at 25 mg/kg,[2]; [7],39%
same,% Lipoproteins β,[3]; 350 mg kg^-1 oral,11.18 ± 1.15%
same,% Lipoproteins α,[3]; 350 mg kg^-1 oral,34.17 ± 3.23%
same,% Lipoproteins pre-β,[3]; 350 mg kg^-1 oral,50.03%
same,Chol. (plasma cholesterol),[3]; 350 mg kg^-1 oral,69.25 ± 3.26 mg/100 ml
same,TG (plasma triglycerides),[3]; 350 mg kg^-1 oral,88.15 ± 15.36 mg/100 ml
"C=C[C@H]1C[N@@]2CC[C@H]1C[C@@H]2[C@@H](O)c1ccnc2ccc(OC)cc12 [Quinidine, reference compound]",change in vivo at 8.9 mg/kg,[2]; [6],50%
same,change in vivo at 8.9 mg/kg,[2]; [7],41.7%
C=CC(=O)OC(CC(=O)O)C[N+](C)(C)C (centres unmarked) [acrilyl-CAR],LD50,[1],1380 mg/kg
same,change in vivo at 50 mg/kg,[2]; [6],45%
same,change in vivo at 50 mg/kg,[2]; [7],39%
"C[N+](C)(C)CC(CC(=O)O)OC(=O)CC1CCCCC1 (centres unmarked) [cyclohexyl ACAR, cyclohexyl acetyl carnitine chloride]",LD50,[1],850 mg/kg
same,change in vivo at 35 mg/kg,[2]; [6],63%
same,change in vivo at 35 mg/kg,[2]; [7],44%
same,% Lipoproteins β,[3]; 400 mg kg^-1 oral,12.15 ± 1.09%
same,% Lipoproteins α,[3]; 400 mg kg^-1 oral,36.48 ± 2.36%
same,% Lipoproteins pre-β,[3]; 400 mg kg^-1 oral,49.12%
same,Chol. (plasma cholesterol),[3]; 400 mg kg^-1 oral,85.15 ± 4.26 mg/100 ml
same,TG (plasma triglycerides),[3]; 400 mg kg^-1 oral,100.12 ± 15.16 mg/100 ml
"CCOCC(=O)OC(CC(=O)O)C[N+](C)(C)C (centres unmarked) [ethoxy ACAR, ethoxy acetyl carnitine chloride]",LD50,[1],2120 mg/kg
same,change in vivo at 20 mg/kg,[2]; [6],60%
same,change in vivo at 20 mg/kg,[2]; [7],55%
same,% Lipoproteins β,[3]; 250 mg kg^-1 oral,10.28 ± 1.52%
same,% Lipoproteins α,[3]; 250 mg kg^-1 oral,37.15 ± 2.17%
same,% Lipoproteins pre-β,[3]; 250 mg kg^-1 oral,42.15 ± 2.27%
same,Chol. (plasma cholesterol),[3]; 250 mg kg^-1 oral,70.26 ± 6.48 mg/100 ml
same,TG (plasma triglycerides),[3]; 250 mg kg^-1 oral,78.25 ± 10.12 mg/100 ml
CCOCC(=O)O[C@H](CC(=O)O)C[N+](C)(C)C.[Cl-] [ethoxyacetyl CAR],LD50 and fiducial limits,[4],760 (545-975) mg kg^-1
same,"contractile force, mean ± ESM",[5],62.25 ± 3.24%
same,% increase of the latency time to onset of initial cardiac arrythmia,[2]; 100 mg kg^-1 i.v.,40%
same,% increase of the latency time to onset of tachycardia,[2]; 100 mg kg^-1 i.v.,20%
CC(C=O)C(=O)OC(CC(=O)[O-])C[N+](C)(C)C (centres unmarked) [formyl propionyl CAR],LD50 and fiducial limits,[4],1010 (850-1170) mg kg^-1
same,"contractile force, mean ± ESM",[5],74.26 ± 4.15%
same,% increase of the latency time to onset of initial cardiac arrythmia,[2]; 60 mg kg^-1 i.v.,55%
same,% increase of the latency time to onset of tachycardia,[2]; 60 mg kg^-1 i.v.,34%
"COCC(=O)OC(CC(=O)O)C[N+](C)(C)C (centres unmarked) [methoxy ACAR, methoxy acetyl carnitine chloride]",LD50,[1],1980 mg/kg
same,change in vivo at 25 mg/kg,[2]; [6],65%
same,change in vivo at 25 mg/kg,[2]; [7],50%
CC(C)(C)CC(=O)OC(CC(=O)O)C[N+](C)(C)C (centres unmarked) [tert-butyl ACAR],LD50,[1],1120 mg/kg
same,change in vivo at 25 mg/kg,[2]; [6],59%
same,change in vivo at 25 mg/kg,[2]; [7],36%
same,% Lipoproteins β,[3]; 350 mg kg^-1 oral,13.27 ± 1.12%
same,% Lipoproteins α,[3]; 350 mg kg^-1 oral,31.12 ± 2.17%
same,% Lipoproteins pre-β,[3]; 350 mg kg^-1 oral,51.36%
same,Chol. (plasma cholesterol),[3]; 350 mg kg^-1 oral,70.12 ± 3.24 mg/100 ml
same,TG (plasma triglycerides),[3]; 350 mg kg^-1 oral,99.36 ± 10.12 mg/100 ml
vinyl acetyl carnitine chloride [vinyl CAR],LD50 and fiducial limits,[4],1200 (800-1600) mg kg^-1
same,"contractile force, mean ± ESM",[5],48.25 ± 5.12%
same,% increase of the latency time to onset of initial cardiac arrythmia,[2]; 38 mg kg^-1 i.v.,53%
same,% increase of the latency time to onset of tachycardia,[2]; 38 mg kg^-1 i.v.,41%
same,% Lipoproteins β,[3]; 300 mg kg^-1 oral,14.13 ± 1.63%
same,% Lipoproteins α,[3]; 300 mg kg^-1 oral,29.46 ± 3.15%
same,% Lipoproteins pre-β,[3]; 300 mg kg^-1 oral,48.89 ± 2.96%
same,Chol. (plasma cholesterol),[3]; 300 mg kg^-1 oral,78.15 ± 6.16 mg/100 ml
same,TG (plasma triglycerides),[3]; 300 mg kg^-1 oral,112.15 ± 15.16 mg/100 ml

# Reference: patent publication US4766222A, “Novel class of acyl-derivatives of carnitine process for preparing same and therapeutic use thereof” (Sigma-Tau Industrie Farmacuetiche Riunite S.p.A., priority 1980, dated 1988)
